{
  "source": "paper PMC8452925",
  "about": "“Differential Modulation of the Voltage-Gated Na^+ Channel 1.6 by Peptides Derived From Fibroblast Growth Factor 14” (Frontiers in Molecular Biosciences, 2021)",
  "origin": "cited, not measured here",
  "key": {"[1]": {"system": "FGF14^Y158A:Nav1.6 complex", "conditions": "50 µM, LCA, ref Singh et al., 2020", "procedure": "In our previous study ([Singh et al., 2020]), we pharmacologically evaluated all three tetrapeptides at a single concentration of 50 µM using the LCA. […] For example, in the FGF14^V160A condition, all three peptides lost activity, whereas in the FGF14^Y158A condition, FLPK retaine ..."}, "[2]": {"system": "human Nav1.6 with FGF14-GFP", "conditions": "ref Singh et al., 2020", "excerpt": "(§1) To guide drug discovery efforts targeting the PPI interface between FGF14 and the CTD of Nav1.6, we previously developed and interrogated a homology model of the PPI interface to identify putative clusters of amino acids central to assembly of the complex ([Ali et al., 2014], [2016]). These investigations identified the Phe-Leu-Pro-Lys (FLPK) and Pro-Leu-Glu-Val (PLEV) motifs on the β12 sheet of FGF14, and the Glu-Tyr-Tyr-Val (EYYV) motif on the β8-β9 loop of FGF14, as being putatively essential for FGF14:Nav1.6 complex assembly ([Ali et al., 2014], [2016]). To investigate if short peptides de ..."}, "[3]": {"system": "MSNs of the NAc", "conditions": "ref Singh et al., 2020", "excerpt": "as §1"}, "[4]": {"molecular_target": "T1, FGF14:Nav1.6 complex (Homo sapiens, UniProt Q92915)", "T1 construct": "expressed in transfected cells", "T1 sequence (Q92915 1-252 isoform Q92915-2)": "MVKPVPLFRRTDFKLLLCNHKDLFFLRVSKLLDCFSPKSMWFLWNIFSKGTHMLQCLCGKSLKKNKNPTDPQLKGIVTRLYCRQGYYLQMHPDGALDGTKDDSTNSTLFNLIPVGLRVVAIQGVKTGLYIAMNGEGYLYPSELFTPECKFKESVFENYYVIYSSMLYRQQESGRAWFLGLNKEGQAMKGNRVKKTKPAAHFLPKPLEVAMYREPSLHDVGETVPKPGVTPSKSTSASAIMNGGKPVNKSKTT", "conditions": "ref Singh et al., 2020", "excerpt": "as §1"}},
  "data": [
    {"substance": "Phe-Leu-Pro-Lys [FLPK, tetrapeptide from the β12 sheet of FGF14, previously evaluated (Singh et al., 2020)]", "values": [
      {"measurement": "Effect on complex assembly with FGF14^Y158A (in words)", "setting": "[1]", "value": "retained its inhibitory effects on FGF14:Nav1.6 complex assembly"},
      {"measurement": "Effect on FGF14-mediated regulation of Nav1.6 channel activity (in words)", "setting": "[2]", "value": "reversed FGF14-mediated regulatory effects on Nav1.6 channel activity"},
      {"measurement": "Effect on neuronal excitability (in words)", "setting": "[3]", "value": "affected neuronal excitability of MSNs of the NAc"},
      {"measurement": "Effect on FGF14:Nav1.6 complex assembly (in words)", "setting": "[4]", "value": "inhibited FGF14:Nav1.6 complex assembly"}
    ]}
  ]
}
